Values joined by “and” are separate entries in the source; they are usually repeats but may differ in a detail not shown here. Equal entries are not always repeated.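 Protocol summary: plate cells (96-well), add compound at 5 concentrations, incubate 48 h, interpolate endpoints linearly. The concentration for 50% growth inhibition is given as GI50. TGI: total growth inhibition.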
How the values were obtained:
Experiment in all cases: DTP human tumour cell line panel, 48 h
786-0 renal = system: 786-0 renal
EKVX NSCLC = system: EKVX NSCLC
HOP-92 NSCLC = system: HOP-92 NSCLC
M14 melanoma = system: M14 melanoma
MALME-3M melanoma = system: MALME-3M melanoma
OVCAR-5 ovarian = system: OVCAR-5 ovarian
SNB-19 CNS = system: SNB-19 CNS
DU-145 prostate = system: DU-145 prostate
MDA-MB-231 breast = system: MDA-MB-231 breast
HS 578T breast = system: HS 578T breast

Row | Compound | TGI (786-0 renal) [µM] | TGI (EKVX NSCLC) | TGI (HOP-92 NSCLC) [µM] | TGI (M14 melanoma) [µM] | TGI (MALME-3M melanoma) | TGI (OVCAR-5 ovarian) [µM] | TGI (SNB-19 CNS) [µM] | GI50 (786-0 renal) [µM] | GI50 (HOP-92 NSCLC) | GI50 (M14 melanoma) [µM] | GI50 (MALME-3M melanoma) [µM] | TGI (DU-145 prostate) [µM] | TGI (MDA-MB-231 breast) [µM] | GI50 (DU-145 prostate) [µM] | GI50 (HS 578T breast) [µM] | TGI (HS 578T breast) [µM] | GI50 (MDA-MB-231 breast) [µM] | GI50 (OVCAR-5 ovarian) [µM] | GI50 (SNB-19 CNS) | GI50 (EKVX NSCLC) [µM]
1 | C=CNC(=S)n1nc(-c2ccccc2NC(=O)C(F)(F)F)c(=O)n(C(=S)NC=C)c1=S | > 1 | 69.3 µM | 36.5 | > 100 | > 100 µM | > 100 | > 100 |  |  |  |  |  |  |  |  |  |  |  |  | 
2 | C1C[S][Ge]2([S]CCS1)[S]CCSCC[S]2 | > 100 |  | > 100 | > 100 | > 100 µM |  |  | > 100 | > 100 µM | > 100 | > 100 |  |  |  |  |  |  |  |  | 
3 | CCCCC1N=CNc2c1ccc1c2[nH]c2ccccc21 (stereo not drawn) | 3.34 | 21.6 µM | 9.72 | 6.74 | 10.5 µM | 9.07 | 24.9 |  |  |  |  | 5.72 | 3.3 |  |  |  |  |  |  | 
4 | C/C(CC(=O)Nc1ccc([N+](=O)[O-])cc1)=N\Nc1ccc([N+](=O)[O-])cc1[N+](=O)[O-] | > 100 | > 100 µM | > 100 | > 100 | > 100 µM | > 100 |  |  |  |  |  |  |  |  |  |  |  |  |  | 
5 | C[C@H]1CCC2C(CN3CCCCC3)C(=O)OC2[C@]2(C)C(=O)CC(N3CCCCC3)C12O (stereo partly drawn) | 22.2 | 16.1 µM | 7.54 |  | 47.5 µM | 22.6 | 73 |  |  |  |  |  |  |  |  |  |  |  |  | 
6 | c1cnc2nc3n(c2c1)CSC3 | > 100 | > 100 µM | > 100 | > 100 | > 100 µM | > 100 |  |  |  |  |  |  |  |  |  |  |  |  |  | 
7 | Cn1c2c(c3ccccc31)CCN(CCCN1CCN(c3ccccc3)CC1)C2=O | 39.1 | 77.6 µM | 31.7 | 37 |  |  |  |  |  |  |  |  |  |  |  |  |  |  |  | 
8 | O=C(O)CCCc1cc2c(s1)-c1cccc3cccc-2c13 | > 100 |  | 39 | > 100 | > 100 µM | > 100 | > 100 |  |  |  |  |  |  |  |  |  |  |  |  | 
9 | Cc1cc(N(CCC#N)CCC#N)ccc1CC1N=C(c2ccccc2)OC1=O (stereo not drawn) | > 100 | > 100 µM | > 100 | > 100 | > 100 µM | > 100 | > 100 |  |  |  |  |  |  |  |  |  |  |  |  | 
10 | O=c1[nH]c(-c2ccc([N+](=O)[O-])cc2)nc2ccc(Cl)cc12 | > 100 | > 100 µM | 84.2 |  | > 100 µM | > 100 | > 100 |  |  |  |  |  |  |  |  |  |  |  |  | 
11 | C/C(CC(=O)Nc1cccc(C)c1C)=N\NC(N)=S | > 100 | > 100 µM | > 100 | > 100 | > 100 µM | > 100 | > 100 |  |  |  |  |  |  |  |  |  |  |  |  | 
12 | COC(=O)C1=Cc2cn(S(=O)(=O)c3ccc(C)cc3)c3cccc(c23)C(C=C(C)C)N1C(C)=O (stereo not drawn) | > 100 | > 100 µM | > 100 | > 100 | 64.6 µM | > 100 | > 100 |  |  |  |  |  |  |  |  |  |  |  |  | 
13 | O=[N+]([O-])c1cccc([I+]c2ccccc2)c1 | 29.9 |  |  | 33.5 |  | 38.4 | 26.5 | 13 |  | 11.1 |  | 24.3 | 33.6 | 11.1 | 10.1 | 68.2 | 14.8 | 17.7 | 13.4 µM | 
14 | O=c1sc(-c2nc3ccccc3[nH]2)c(/N=C/c2ccccc2)n1-c1ccccc1 | > 100 | > 100 µM |  | > 100 | > 100 µM | > 100 | > 100 |  |  |  |  |  |  |  |  |  |  |  |  | 
15 | [Au+].c1c[n-]cn1.c1ccc([PH+](c2ccccc2)c2ccccc2)cc1 | 3.04 | 38.2 µM | 4.79 | 6.73 | 4.25 µM | 42.3 | 18 | 1.66 | 2.36 µM | 2.34 | 1.96 | 36.5 |  | 17.2 | 17.1 | > 100 |  | 20.9 | 7.28 µM | 11
16 | CN1c2ccccc2S(=O)(=O)n2c(COc3ccccc3)nnc21 | > 100 | > 100 µM | > 100 | > 100 |  | > 100 | > 100 |  |  |  |  | > 100 | > 100 |  |  | > 100 |  |  |  | 
17 | c1ccc(N2N=NC3C4CC(C5c6ccccc6C45)C32)cc1 (stereo not drawn) | > 100 | > 100 µM | 54.6 | > 100 | 69.4 µM | > 100 | > 100 |  |  |  |  |  |  |  |  |  |  |  |  | 
18 | Cc1cc(C)c(C2=NO[C@@H]3C(=O)N(c4ccc(Cc5ccc(N6C(=O)[C@H]7C(c8c(C)cc(C)cc8C)=NO[C@H]7C6=O)cc5)cc4)C(=O)[C@H]23)c(C)c1 | > 100 | > 100 µM | > 100 | > 100 | > 100 µM | > 100 |  |  |  |  |  |  |  |  |  |  |  |  |  | 
19 | O=C(Nc1ccc(Cl)cc1)c1cc2ccccc2cc1OP(=O)(O)O | 13.4 | 25.2 µM | 8.45 | 56.6 | 7.3 µM | 42.3 |  | 3.59 | 2.46 µM | 3.74 | 1.91 | 17.8 | 16.6 | 3.94 | 2.96 | 19.8 | 3.01 | 6.51 |  | 2.82
20 | O=C(O)c1ccccc1C1c2ccc(Cl)cc2Oc2cc(Cl)ccc21 | > 100 | > 100 µM | > 100 | > 100 | > 100 µM | > 100 | > 100 |  |  |  |  |  |  |  |  |  |  |  |  | 
21 | CN(CC1NCCCC1O)C12CC3CC(CC(C3)C1)C2 (stereo not drawn) | > 100 | > 100 µM | > 100 | > 100 | > 100 µM | > 100 | > 100 |  |  |  |  |  |  |  |  |  |  |  |  | 
22 | COc1cc(=O)oc(/C=C/CO)c1C | > 100 | > 100 µM | > 100 | > 100 | > 100 µM | > 100 | > 100 |  |  |  |  |  |  |  |  |  |  |  |  | 
23 | CCOC(=O)Cn1c(=O)[nH]c(=O)c2[nH]cnc21 | > 100 | > 100 µM |  | > 100 | > 100 µM | > 100 | > 100 |  |  |  |  |  |  |  |  |  |  |  |  | 
24 | O=C(NCCCl)NCc1ccccc1 | > 100 | > 100 µM | > 100 |  | > 100 µM | > 100 | > 100 |  |  |  |  | > 100 | > 100 |  |  | > 100 |  |  |  | 
25 | C=CCn1c(=O)c(C(=O)NC(=O)OCC)cn(C2CCCCC2)c1=O | > 100 | > 100 µM | > 100 | > 100 | > 100 µM | > 100 | > 100 |  |  |  |  |  |  |  |  |  |  |  |  | 
26 | COC1C(C)OC(OC2CC(C)(O)Cc3cc4c(c(O)c32)C(=O)c2c(O)cc3c(c2C4=O)OC2OC3(C)C(O)C(N(C)C)C2O)C(OC)C1(C)OC (stereo not drawn) | 2.46 | 1.21 µM and 0.304 µM |  |  | 0.383 µM and 0.0944 µM |  |  |  | 0.00296 µM and 0.0156 µM | 0.141 | 0.0178 |  |  |  |  | 0.000563 |  |  | 0.055 µM and 0.0181 µM | 
